Results taken from paper PMC7343696 (EJNMMI Research, 2020).
“Also recorded” adds a separate entry of the source. Where a name gives a salt, the structure may show the parent alone. Read-outs that look alike come from different tables or passages of the source. Marks after values point to notes of the source that are not given here.

Columns and labels:
[1] = system: SK-N-SH neuroblastoma xenografts; assay: [125I]MIBG tumor uptake in mice bearing SK-N-SH neuroblastoma xenografts; type: in vivo, BALB/c nu/nu mice; settings: for Effect on [125I]MIBG accumulation in neuroblastoma xenografts (in words): inhibitor IP 30 min before [125I]MIBG, tissues 1 h after, doses as in Fig. 6
Experimental: (§1) Female athymic BALB/c nu/nu mice were bred in the animal facility of the Netherlands Cancer Institute. Experiments were performed in accordance with the national regulations for animal experimentations and approved by the local animal welfare committee. Subcutaneous (s.c.) neuroblastoma tumors consisted of either first passages of intrasplenic-induced SK-N-SH xenografts or later passages from s.c. propagation of the xenograft. […] The tumor volume doubling time was on average 5 days. The toxicity of each monoamine transporter inhibitor was assessed in 2 to 5 non-tumor-bearing nude mice by 1 h careful observation following intraperitoneal (IP) injection of the monoamine transporter inhibitor. Applied inhibitor doses were based on earlier studies (summarized in Electronic Supplementary Material: Table I) and varied from 2 to 50 mg/kg. Provided that no toxicity was observed, plasma of these animals was subsequently analyzed in the ex vivo bioassay described below. […]. First, mice were treated IP with either a monoamine transporter inhibitor or sodium chloride (control). Thirty minutes later, they received an injection in the tail vein with 1 μg MIBG spiked with 4.0–8.0 kBq [^125I]MIBG. One hour after administration of the radiopharmaceutical, the animals were bled from the carotid artery under ether anesthesia and dissected. Tumors and tissues of interest were blotted to remove adhering blood, weighted, and gamma counted. The [^125I]MIBG tissue levels were expressed as the percentage of the injected radioactivity dose per gram tissue. Mice bearing PC12 pheochromocytoma xenografts induced by direct s.c. injections of PC12 cells were used in similar uptake and inhibition experiments.

[2] = system: PC12 pheochromocytoma xenografts; assay: [125I]MIBG tumor uptake in mice bearing PC12 pheochromocytoma xenografts; type: in vivo; settings: for Effect on tumor MIBG uptake in PC12 pheochromocytoma xenografts (in words): data not shown
Experimental: as §1

[3] = system: tryptophan or 5-hydroxytryptophan induced symptoms; settings: mice, assay type I, cited from earlier work
[4] = system: amphetamine-stimulated locomotor activity; set-up: method as in ref (8) (a number printed in a supplementary file, which may have a reference list of its own: not looked up in the article's list); settings: mice, i.p., assay type IV; ref (8); cited from earlier work
SERT [5] = target: T1, SERT (Homo sapiens, UniProt P31645); type: cell-based
T1 construct: host or cells: HEK293 (ATCC CRL-3216), transient transfection

NET = target: T2, NET (Homo sapiens, UniProt P23975); assay: [125I]MIBG uptake and its inhibition in NET-transfected HEK293 cells (HEK-NET); type: cell-based
T2 construct: host or cells: HEK293 (ATCC CRL-3216), transient transfection

[6] = target: T3, human platelets (uptake via SERT) (Homo sapiens, UniProt P31645); assay: [3H]serotonin uptake inhibition in isolated human platelets; type: cell-based; settings: 15 min
T3 construct: endogenous in cells; host or cells: human platelets in platelet-rich plasma from patients with polycythemia vera or secondary polycythemia

[7] = target: T3, human platelets (uptake via SERT); assay: [125I]MIBG uptake inhibition in isolated human platelets; type: cell-based
[8] = cited from earlier work
SERT [9] = settings: cited from earlier work
[10] = target: T4, human SK-N-SH neuroblastoma cells (uptake via NET) (Homo sapiens, UniProt P23975); assay: [125I]MIBG uptake inhibition in cultured SK-N-SH neuroblastoma cells; type: cell-based
T4 construct: host or cells: SK-N-SH human neuroblastoma cells

[11] = set-up: method as in ref (3) (a number printed in a supplementary file, which may have a reference list of its own: not looked up in the article's list); settings: mice, 24 mg/kg i.v., fifteen min after administration; ref (3); cited from earlier work
platelet function = settings: plasma concentrations that will inhibit SERT; cited from earlier work
[12] = [125I]MIBG as substrate, HEK-SERT
[13] = [125I]MIBG as substrate, HEK-NET

T1 sequence (P31645 whole entry): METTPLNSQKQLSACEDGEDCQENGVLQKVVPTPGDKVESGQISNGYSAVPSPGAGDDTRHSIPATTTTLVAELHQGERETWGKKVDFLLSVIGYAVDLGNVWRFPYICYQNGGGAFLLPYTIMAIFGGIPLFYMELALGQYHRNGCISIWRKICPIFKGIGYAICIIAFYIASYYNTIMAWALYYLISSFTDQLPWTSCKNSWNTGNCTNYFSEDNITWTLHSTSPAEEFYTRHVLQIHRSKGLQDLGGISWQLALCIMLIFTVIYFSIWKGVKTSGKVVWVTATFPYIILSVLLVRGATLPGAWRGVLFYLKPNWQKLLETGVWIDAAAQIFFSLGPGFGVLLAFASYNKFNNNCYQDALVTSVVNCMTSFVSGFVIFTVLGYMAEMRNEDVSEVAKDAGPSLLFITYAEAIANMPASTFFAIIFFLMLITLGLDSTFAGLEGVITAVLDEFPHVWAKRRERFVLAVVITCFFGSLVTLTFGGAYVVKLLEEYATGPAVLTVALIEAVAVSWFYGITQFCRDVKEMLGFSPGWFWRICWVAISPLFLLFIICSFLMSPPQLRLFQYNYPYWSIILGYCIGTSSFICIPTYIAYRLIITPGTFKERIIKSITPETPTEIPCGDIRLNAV
T3 sequence (P31645 whole entry): as above
T4 sequence (P23975 whole entry): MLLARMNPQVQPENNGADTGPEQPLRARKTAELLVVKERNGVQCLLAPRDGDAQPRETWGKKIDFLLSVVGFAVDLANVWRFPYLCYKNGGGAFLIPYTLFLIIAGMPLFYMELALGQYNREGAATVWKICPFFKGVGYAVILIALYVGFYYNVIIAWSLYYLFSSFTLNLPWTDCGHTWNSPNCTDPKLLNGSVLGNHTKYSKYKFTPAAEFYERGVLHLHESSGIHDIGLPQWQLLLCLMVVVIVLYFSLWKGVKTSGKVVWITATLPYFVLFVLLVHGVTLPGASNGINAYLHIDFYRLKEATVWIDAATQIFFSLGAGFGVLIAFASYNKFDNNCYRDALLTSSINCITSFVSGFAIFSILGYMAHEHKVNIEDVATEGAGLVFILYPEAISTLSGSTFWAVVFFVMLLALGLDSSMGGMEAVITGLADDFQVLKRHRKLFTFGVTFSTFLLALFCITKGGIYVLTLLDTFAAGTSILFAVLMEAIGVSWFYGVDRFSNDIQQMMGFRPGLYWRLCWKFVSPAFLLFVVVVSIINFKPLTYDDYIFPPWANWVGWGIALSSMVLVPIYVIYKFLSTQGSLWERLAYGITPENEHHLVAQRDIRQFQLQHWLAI
T2 sequence (P23975 whole entry): as above

Structure (SMILES): CNCCCN1c2ccccc2CCc2ccccc21 [Desipramine, desipramine-HCl]
- Decrease of [125I]MIBG accumulation in neuroblastoma xenografts ([1]; 20 mg/kg IP 30 min before [125I]MIBG): 60%
- Effect on [125I]MIBG accumulation in neuroblastoma xenografts (in words) [1]: profoundly decreased
- Effect on tumor MIBG uptake in PC12 pheochromocytoma xenografts (in words) [2]: same reduction of MIBG uptake as seen in SK-N-SH neuroblastoma xenografts
- 50 % effective dose ([3]; i.p., ref (1)): >39^c mg/kg
- 50 % effective dose ([3]; oral, ref (2, 4, 7)): 20 – 320^c mg/kg
- Reported effective dose (cell not marked as 50 % effective dose) [4]: 5 to 36 mg/kg

Structure (SMILES): COCCCC/C(=N\OCCN)c1ccc(C(F)(F)F)cc1 [Fluvoxamine, fluvoxamine-maleate]
- Inhibition of [125I]MIBG uptake in HEK-SERT cells (in words) (SERT [5]; 1 h, substrate 10^−6 M): potently inhibited
- Inhibition of [125I]MIBG uptake in HEK-NET cells (in words) (NET; 1 h, substrate 10^−6 M): no significant inhibitory effect at low concentrations
- Inhibition of [3H]serotonin uptake in human platelets (in words) ([6]; co-incubation): effective, inhibitor concentration-dependent inhibition
- Inhibition of [125I]MIBG uptake in human platelets (in words) ([7]; co-incubation, 4 h): effective, inhibitor concentration-dependent inhibition
- Effect on [125I]MIBG accumulation in neuroblastoma xenografts (in words) [1]: no effect; also recorded: not significantly affected
- Reduction of pheochromocytoma-associated radioactivity ([2]; PC12 xenografts, p < 0.002): 64%
- 50 % effective dose ([3]; oral, ref (2)): 13^c mg/kg

Structure (SMILES): N=C(N)NCc1cccc([131I])c1 [MIBG, meta-iodobenzylguanidine]
- Nonspecific uptake, share of total uptake (SERT [5]; SERT-transfected cells, substrate concentration 10^−5 M): 22%
- Catalytic efficiency (ratio Vmax/Km) (SERT [5]; [12]): 0.0077
- Vmax (SERT [5]; [12]): 0.074 μmol/mg protein/min
- Nonspecific uptake, share of total uptake (NET; NET-transfected cells, substrate concentration 10^−5 M): 33%
- Catalytic efficiency (ratio Vmax/Km) (NET; [13]): 0.045
- Vmax (NET; [13]): 0.022 μmol/mg protein/min
- Total uptake (percentage of added radioactivity) ([7]; control platelet samples without SSRIs, MIBG, n = 17): 23.6 ± 3.6%
- Nonspecific uptake (percentage of controls) ([7]; platelets, MIBG): 12.3 ± 2.5%

Structure (SMILES): CN[C@H]1CC[C@@H](c2ccc(Cl)c(Cl)c2)c2ccccc21 [Sertraline, sertraline-HCl]
- Effect on [125I]MIBG accumulation in neuroblastoma xenografts (in words) [1]: not significantly affected
- Effect on tumor MIBG uptake in PC12 pheochromocytoma xenografts (in words) [2]: no significant difference
- Fraction absorbed after oral ingestion [8]: 44%
- 50 % effective dose ([3]; i.p., ref (1)): 1.5^c mg/kg
- 50 % effective dose ([3]; oral, ref (2)): 1.0^c mg/kg

Structure (SMILES): CNCCC(Oc1ccc(C(F)(F)F)cc1)c1ccccc1 (centres unmarked) [Fluoxetine, fluoxetine-HCl]
- Elimination half-life [8]: 24 to 96 h

Structure (SMILES): CNCCCC1(c2ccc(F)cc2)OCc2cc(C#N)ccc21 (centres unmarked) [desmethylcitalopram]
- Potency and selectivity in inhibiting SERT in vitro compared with citalopram (in words) (SERT [9]): only slightly less potent and selective than citalopram

Structure (SMILES): NCCC(Oc1ccc(C(F)(F)F)cc1)c1ccccc1 (centres unmarked) [Norfluoxetine, norfluoxetine-HCl]
- IC50 ([10]; 10^−8 M substrate, 37 °C, 4 h, read-out: IC50 of uptake inhibition, SK-N-SH, [125I]MIBG): 2760 nM
- Elimination half-life [8]: 170 to 360 h

Structure (SMILES): N=C(N)NCc1cccc(I)c1 [MIBG, meta-iodobenzylguanidine]
- Km (SERT [5]; [125I]MIBG as substrate, HEK-SERT, 1 h incubation): 9.7 µM
- Km (NET; [125I]MIBG as substrate, HEK-NET, 1 h incubation): 0.49 µM

Structure (SMILES): CN(C)CCCC1(c2ccc(F)cc2)OCc2cc(C#N)ccc21 (centres unmarked) [Citalopram, citalopram-HBr]
- Effect on [125I]MIBG accumulation in neuroblastoma xenografts (in words) [1]: not significantly affected
- Effect on tumor MIBG uptake in PC12 pheochromocytoma xenografts (in words) [2]: no significant difference
- Plasma half-life ([8]; after oral ingestion): 33 to 54 h
- Time to maximum plasma drug levels ([8]; after oral ingestion): ≤ 4 h
- Absorption after oral ingestion (in words) [8]: completely absorbed
- 50 % effective dose ([3]; i.p., ref (1)): 0.9^c mg/kg
- 50 % effective dose ([3]; oral, ref (2)): 1.2^c mg/kg
- Plasma level [11]: 6 µM
- Effect on platelet function (in words) (platelet function): no effect on platelet function

Structure (SMILES): CN(C)CCCN1c2ccccc2CCc2ccccc21 [Imipramine, imipramine-HCl]
- Inhibition of [125I]MIBG uptake in human platelets (in words) [7]: able to inhibit
- Effect on MIBG uptake in neuroblastoma cells (in words) [10]: profound inhibitory effect

Structure (SMILES): Fc1ccc([C@@H]2CCNC[C@H]2COc2ccc3c(c2)OCO3)cc1 [Paroxetine, paroxetine-HCl]
- Effect on [125I]MIBG accumulation in neuroblastoma xenografts (in words) [1]: no effect; also recorded: not significantly affected
- Bioavailability ([8]; extensive first-pass metabolism): approximately 50%
- 50 % effective dose ([3]; i.p., ref (1)): 0.2^c mg/kg

Structure (SMILES): CC(N)C(=O)OC(C)(C)Cc1ccc(Cl)cc1 (centres unmarked) [Alaproclate, alaproclate-HCl]
- IC50 ([6]; 10^−8 M substrate, 37 °C): 516 nM
- IC50 ([7]; 10^−8 M substrate, 37 °C, 4 h): 38 nM
- IC50 [10]: 43400 nM
- Selectivity factor, IC50 ratio [10]: 1158
